Measured values published in publication PMC5656653, “Evaluation of Ga-DOTA-(D-Asp)n as bone imaging agents: D-aspartic acid peptides as carriers to bone” (Scientific Reports, 2017).
Where two headings read alike, the source gives them in different places. Where a SMILES comes first, the peptide text is derived from it. [ ]: non-standard residue; d: D form. The star is where a group is joined. DOTA = O=C(O)CN1CCN(CC(=O)O)CCN(CC(=O)*)CCN(CC(=O)O)CC1

Legend:
[1] = Urine analyses by RP-HPLC after i.v. injection; type: in vivo; settings: mice, urine from bladder at 1 h post-injection
Method: ^67Ga-DOTA-(L-Asp)14 was prepared according to a method described previously. ^67Ga-DOTA-(L-Asp)14 or ^67Ga-DOTA-(D-Asp)14 solution (370 kBq / 200 μL) was intravenously injected to 6-week-old male ddY mice. At 1 h post-injection, mice were sacrificed and their […] were taken from the bladders. After ultrafiltration (Microcon-30, Merck KGaA), the filtrate samples were analyzed by RP-HPLC at a flow rate of 1 mL/min with a gradient mobile phase from water containing 0.1% TFA to 20% methanol in water containing 0.1% TFA for 20 min.

[2] = Biodistribution experiments in normal mice after i.v. injection; type: in vivo; settings: i.v.; for tissue uptake dose at 10 min / tissue uptake dose at 1 h / tissue uptake dose at 3 h: male, ddY, mouse, in vivo, iv, total radioactivity; for tissue uptake dose at 10 min / tissue uptake dose at 1 h / tissue uptake dose at 3 h / F/B ratio (Femur:blood ratio): mice, mean (SD)
Outline: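 Male ddY mice (6 weeks, 27–32 g) received tracer i.v. (37–740 kBq/100 μL); 4–5 per group sacrificed at 10, 60 and 180 min. Weighed tissues and whole left femur (bone) gamma-counted with background and decay correction.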

SMILES: O=C(O)C[C@@H](NC(=O)[C@@H](CC(=O)O)NC(=O)[C@@H](CC(=O)O)NC(=O)[C@@H](CC(=O)O)NC(=O)[C@@H](CC(=O)O)NC(=O)[C@@H](CC(=O)O)NC(=O)[C@@H](CC(=O)O)NC(=O)[C@@H](CC(=O)O)NC(=O)[C@@H](CC(=O)O)NC(=O)[C@@H](CC(=O)O)NC(=O)[C@@H](CC(=O)O)NC(=O)[C@@H](CC(=O)O)NC(=O)[C@@H](CC(=O)O)NC(=O)[C@@H](CC(=O)O)NC(=O)CN1CCN(CC(=O)O)CCN(CC(=O)O)CCN(CC(=O)O)CC1)C(=O)O [^67Ga-DOTA-(D-Asp)14, metal not drawn] ({DOTA}-[dD][dD][dD][dD][dD][dD][dD][dD][dD][dD][dD][dD][dD][dD]-OH)
- Ratio of the intact complex in urine [1]: 85.8 ± 17.4%
- tissue uptake dose at 10 min ([2]; 10 min after injection, footnote b, read-out: Biodistribution of radioactivity, Stomach): 0.28 %ID
- tissue uptake dose at 10 min ([2]; 10 min after injection, read-out: Biodistribution of radioactivity, Blood): 2.46 %ID
- tissue uptake dose at 10 min ([2]; 10 min after injection, read-out: Biodistribution of radioactivity, Bone (Femur)): 11.9 %ID
- tissue uptake dose at 10 min ([2]; 10 min after injection, read-out: Biodistribution of radioactivity, Brain): 0.06 %ID
- tissue uptake dose at 10 min ([2]; 10 min after injection, read-out: Biodistribution of radioactivity, Heart): 0.94 %ID
- tissue uptake dose at 10 min ([2]; 10 min after injection, read-out: Biodistribution of radioactivity, Kidney): 8.15 %ID
- tissue uptake dose at 10 min ([2]; 10 min after injection, read-out: Biodistribution of radioactivity, Large-intestine): 0.4 %ID
- tissue uptake dose at 10 min ([2]; 10 min after injection, read-out: Biodistribution of radioactivity, Liver): 0.51 %ID
- tissue uptake dose at 10 min ([2]; 10 min after injection, read-out: Biodistribution of radioactivity, Lung): 1.75 %ID
- tissue uptake dose at 10 min ([2]; 10 min after injection, read-out: Biodistribution of radioactivity, Muscle): 0.77 %ID
- tissue uptake dose at 10 min ([2]; 10 min after injection, read-out: Biodistribution of radioactivity, Pancreas): 0.88 %ID
- tissue uptake dose at 10 min ([2]; 10 min after injection, read-out: Biodistribution of radioactivity, Small-intestine): 0.55 %ID
- tissue uptake dose at 10 min ([2]; 10 min after injection, read-out: Biodistribution of radioactivity, Spleen): 0.48 %ID
- tissue uptake dose at 1 h ([2]; 60 min after injection, footnote b, read-out: Biodistribution of radioactivity, Stomach): 0.07 %ID
- tissue uptake dose at 1 h ([2]; 60 min after injection, read-out: Biodistribution of radioactivity, Blood): 0.09 %ID
- tissue uptake dose at 1 h ([2]; 60 min after injection, read-out: Biodistribution of radioactivity, Bone (Femur)): 13 %ID
- tissue uptake dose at 1 h ([2]; 60 min after injection, read-out: Biodistribution of radioactivity, Brain): 0.01 %ID
- tissue uptake dose at 1 h ([2]; 60 min after injection, read-out: Biodistribution of radioactivity, Heart): 0.18 %ID
- tissue uptake dose at 1 h ([2]; 60 min after injection, read-out: Biodistribution of radioactivity, Kidney): 1.21 %ID
- tissue uptake dose at 1 h ([2]; 60 min after injection, read-out: Biodistribution of radioactivity, Large-intestine): 0.1 %ID
- tissue uptake dose at 1 h ([2]; 60 min after injection, read-out: Biodistribution of radioactivity, Liver): 0.15 %ID
- tissue uptake dose at 1 h ([2]; 60 min after injection, read-out: Biodistribution of radioactivity, Lung): 0.28 %ID
- tissue uptake dose at 1 h ([2]; 60 min after injection, read-out: Biodistribution of radioactivity, Muscle): 0.16 %ID
- tissue uptake dose at 1 h ([2]; 60 min after injection, read-out: Biodistribution of radioactivity, Pancreas): 0.27 %ID
- tissue uptake dose at 1 h ([2]; 60 min after injection, read-out: Biodistribution of radioactivity, Small-intestine): 0.18 %ID
- tissue uptake dose at 1 h ([2]; 60 min after injection, read-out: Biodistribution of radioactivity, Spleen): 0.12 %ID
- tissue uptake dose at 3 h ([2]; 180 min after injection, footnote b, read-out: Biodistribution of radioactivity, Stomach): 0.06 %ID
- tissue uptake dose at 3 h ([2]; 180 min after injection, read-out: Biodistribution of radioactivity, Blood): 0.03 %ID
- tissue uptake dose at 3 h ([2]; 180 min after injection, read-out: Biodistribution of radioactivity, Bone (Femur)): 14.8 %ID
- tissue uptake dose at 3 h ([2]; 180 min after injection, read-out: Biodistribution of radioactivity, Brain): 0.01 %ID
- tissue uptake dose at 3 h ([2]; 180 min after injection, read-out: Biodistribution of radioactivity, Heart): 0.11 %ID
- tissue uptake dose at 3 h ([2]; 180 min after injection, read-out: Biodistribution of radioactivity, Kidney): 0.54 %ID
- tissue uptake dose at 3 h ([2]; 180 min after injection, read-out: Biodistribution of radioactivity, Large-intestine): 0.2 %ID
- tissue uptake dose at 3 h ([2]; 180 min after injection, read-out: Biodistribution of radioactivity, Liver): 0.05 %ID
- tissue uptake dose at 3 h ([2]; 180 min after injection, read-out: Biodistribution of radioactivity, Lung): 0.03 %ID
- tissue uptake dose at 3 h ([2]; 180 min after injection, read-out: Biodistribution of radioactivity, Muscle): 0.16 %ID
- tissue uptake dose at 3 h ([2]; 180 min after injection, read-out: Biodistribution of radioactivity, Pancreas): 0.14 %ID
- tissue uptake dose at 3 h ([2]; 180 min after injection, read-out: Biodistribution of radioactivity, Small-intestine): 0.12 %ID
- tissue uptake dose at 3 h ([2]; 180 min after injection, read-out: Biodistribution of radioactivity, Spleen): 0.12 %ID
- F/B ratio (Femur:blood ratio) ([2]; 10 min after injection): 4.90 (0.70)
- F/B ratio (Femur:blood ratio) ([2]; 60 min after injection): 180.99 (91.94)
- F/B ratio (Femur:blood ratio) ([2]; 180 min after injection): 526.37 (130.49)
- Accumulation of radioactivity in bone (in words) ([2]; normal mice): high accumulation and retention of radioactivity in bone
- Radioactivity in the kidneys (in words) ([2]; normal mice): extremely low accumulation of radioactivity in the kidneys
